In patent US12258327B2, “5-membered heteroaryl-containing aminopyridine compounds as EGFR inhibitors” (YUHAN CORPORATION, priority 2021, dated 2025):
Where two headings read alike, the source gives them in different places.

Experiments:
EGFR del19/T790M/C797S = EGFR del19/T790M/C797S (Homo sapiens, UniProt P00533, C797S/DEL746-750/T790M); experiment: Biochemical EGFR kinase assay (Lance Ultra TR-FRET), triple mutant del19/T790M/C797S
Outline: (§1)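 Kinase activity is measured by TR-FRET phosphopeptide detection. Compounds span 0.003 μM to 10 μM; the 1 h reaction at room temperature is quenched with EDTA, then labelled antibody (2 nM) is incubated 60 min before reading.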

EGFR L858R/T790M/C797S = EGFR L858R/T790M/C797S (Homo sapiens, UniProt P00533, C797S/L858R/T790M); experiment: Biochemical EGFR kinase assay (Lance Ultra TR-FRET), triple mutant L858R/T790M/C797S
Outline: as §1

EGFR del19/C797S = EGFR del19/C797S (Homo sapiens, UniProt P00533, C797S/DEL746-750); experiment: Biochemical EGFR kinase assay (Lance Ultra TR-FRET), double mutant del19/C797S
Outline: as §1

EGFR L858R/C797S = EGFR L858R/C797S (Homo sapiens, UniProt P00533, C797S/L858R); experiment: Biochemical EGFR kinase assay (Lance Ultra TR-FRET), double mutant L858R/C797S
Outline: as §1

EGFR wildtype (WT) = EGFR wildtype (WT) (Homo sapiens, UniProt P00533); experiment: Biochemical EGFR kinase assay (Lance Ultra TR-FRET), wildtype
Outline: as §1

[1] = IC50 del19/T790M/C797S (nM) 100 μM ATP, 100 μM ATP
[2] = Km ATP, read-out: IC50 del19/T790M/C797S (nM) Km ATP
[3] = IC50 L858R/T790M/C797S (nM) 100 μM ATP, 100 μM ATP
[4] = Km ATP, read-out: IC50 L858R/T790M/C797S (nM) Km ATP
[5] = IC50 del19/C797S (nM) 100 μM ATP, 100 μM ATP
[6] = Km ATP, read-out: IC50 del19/C797S (nM) Km ATP
[7] = IC50 L858R/C797S (nM) 100 μM ATP, 100 μM ATP
[8] = Km ATP, read-out: IC50 L858R/C797S (nM) Km ATP
[9] = IC50 WT (nM) 100 μM ATP, 100 μM ATP
[10] = Km ATP, read-out: IC50 WT (nM) Km ATP

Chain of EGFR L858R/T790M/C797S (P00533 25-1210 T790M/C797S/L858R): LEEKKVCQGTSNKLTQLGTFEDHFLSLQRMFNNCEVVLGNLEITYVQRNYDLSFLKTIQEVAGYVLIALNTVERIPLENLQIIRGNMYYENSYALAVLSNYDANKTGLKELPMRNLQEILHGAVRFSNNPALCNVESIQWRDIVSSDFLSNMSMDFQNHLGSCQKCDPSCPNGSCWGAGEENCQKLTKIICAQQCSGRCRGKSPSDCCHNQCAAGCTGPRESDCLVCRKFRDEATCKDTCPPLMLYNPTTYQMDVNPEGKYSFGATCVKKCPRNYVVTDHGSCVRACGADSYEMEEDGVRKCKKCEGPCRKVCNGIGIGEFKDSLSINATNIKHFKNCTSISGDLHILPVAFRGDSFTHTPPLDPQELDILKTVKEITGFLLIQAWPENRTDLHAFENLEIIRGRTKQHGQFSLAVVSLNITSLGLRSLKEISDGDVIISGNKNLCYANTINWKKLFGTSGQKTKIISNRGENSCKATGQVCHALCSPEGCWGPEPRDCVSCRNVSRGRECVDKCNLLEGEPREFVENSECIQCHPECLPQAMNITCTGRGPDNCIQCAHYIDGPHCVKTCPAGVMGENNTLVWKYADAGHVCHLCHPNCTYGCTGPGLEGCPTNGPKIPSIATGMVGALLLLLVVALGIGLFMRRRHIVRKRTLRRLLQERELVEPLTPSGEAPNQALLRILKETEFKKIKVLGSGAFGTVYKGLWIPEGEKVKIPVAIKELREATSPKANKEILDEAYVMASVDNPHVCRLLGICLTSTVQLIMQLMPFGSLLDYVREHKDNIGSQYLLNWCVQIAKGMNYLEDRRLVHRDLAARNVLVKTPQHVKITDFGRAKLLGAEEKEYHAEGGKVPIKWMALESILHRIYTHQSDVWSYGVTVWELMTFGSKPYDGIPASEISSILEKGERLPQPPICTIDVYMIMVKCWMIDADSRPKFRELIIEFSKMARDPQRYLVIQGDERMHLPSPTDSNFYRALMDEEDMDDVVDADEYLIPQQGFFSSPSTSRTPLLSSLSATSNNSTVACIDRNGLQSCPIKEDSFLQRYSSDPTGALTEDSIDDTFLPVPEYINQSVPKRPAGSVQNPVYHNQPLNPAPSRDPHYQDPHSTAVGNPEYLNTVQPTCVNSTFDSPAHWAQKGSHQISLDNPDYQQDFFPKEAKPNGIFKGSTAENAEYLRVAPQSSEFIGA
Chain of EGFR del19/T790M/C797S (P00533 with tags, fused parts or gaps DEL746-750/T790M/C797S): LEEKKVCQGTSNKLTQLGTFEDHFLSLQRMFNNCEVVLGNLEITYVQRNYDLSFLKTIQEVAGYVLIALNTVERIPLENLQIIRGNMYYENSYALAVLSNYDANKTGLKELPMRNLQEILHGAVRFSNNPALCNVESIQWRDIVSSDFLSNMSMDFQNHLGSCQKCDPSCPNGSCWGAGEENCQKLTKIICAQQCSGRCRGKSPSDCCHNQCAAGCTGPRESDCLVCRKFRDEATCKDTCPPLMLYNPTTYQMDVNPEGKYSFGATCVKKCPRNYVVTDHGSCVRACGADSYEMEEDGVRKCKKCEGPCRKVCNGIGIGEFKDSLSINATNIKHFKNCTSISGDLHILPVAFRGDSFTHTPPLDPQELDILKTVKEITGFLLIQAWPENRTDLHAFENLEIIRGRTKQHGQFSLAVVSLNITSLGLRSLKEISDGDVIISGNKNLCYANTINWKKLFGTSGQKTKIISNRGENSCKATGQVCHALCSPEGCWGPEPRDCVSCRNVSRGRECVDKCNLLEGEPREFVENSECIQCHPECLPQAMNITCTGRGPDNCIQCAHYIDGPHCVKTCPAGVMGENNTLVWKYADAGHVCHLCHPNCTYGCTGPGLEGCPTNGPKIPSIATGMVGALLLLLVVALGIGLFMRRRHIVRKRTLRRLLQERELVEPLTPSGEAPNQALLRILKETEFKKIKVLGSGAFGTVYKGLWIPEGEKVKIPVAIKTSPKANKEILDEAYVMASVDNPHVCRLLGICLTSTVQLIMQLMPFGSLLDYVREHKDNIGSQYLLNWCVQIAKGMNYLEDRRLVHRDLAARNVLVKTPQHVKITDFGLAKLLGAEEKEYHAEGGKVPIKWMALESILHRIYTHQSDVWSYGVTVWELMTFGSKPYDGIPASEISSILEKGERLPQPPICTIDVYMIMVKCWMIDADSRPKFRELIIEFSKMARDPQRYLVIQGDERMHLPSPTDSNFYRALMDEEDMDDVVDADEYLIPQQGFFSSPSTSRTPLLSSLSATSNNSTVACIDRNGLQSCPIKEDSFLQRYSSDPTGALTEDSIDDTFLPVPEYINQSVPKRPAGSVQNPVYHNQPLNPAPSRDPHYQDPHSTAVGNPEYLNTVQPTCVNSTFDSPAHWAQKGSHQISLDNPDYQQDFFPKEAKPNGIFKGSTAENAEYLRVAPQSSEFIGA
Chain of EGFR wildtype (WT) (P00533 25-1210): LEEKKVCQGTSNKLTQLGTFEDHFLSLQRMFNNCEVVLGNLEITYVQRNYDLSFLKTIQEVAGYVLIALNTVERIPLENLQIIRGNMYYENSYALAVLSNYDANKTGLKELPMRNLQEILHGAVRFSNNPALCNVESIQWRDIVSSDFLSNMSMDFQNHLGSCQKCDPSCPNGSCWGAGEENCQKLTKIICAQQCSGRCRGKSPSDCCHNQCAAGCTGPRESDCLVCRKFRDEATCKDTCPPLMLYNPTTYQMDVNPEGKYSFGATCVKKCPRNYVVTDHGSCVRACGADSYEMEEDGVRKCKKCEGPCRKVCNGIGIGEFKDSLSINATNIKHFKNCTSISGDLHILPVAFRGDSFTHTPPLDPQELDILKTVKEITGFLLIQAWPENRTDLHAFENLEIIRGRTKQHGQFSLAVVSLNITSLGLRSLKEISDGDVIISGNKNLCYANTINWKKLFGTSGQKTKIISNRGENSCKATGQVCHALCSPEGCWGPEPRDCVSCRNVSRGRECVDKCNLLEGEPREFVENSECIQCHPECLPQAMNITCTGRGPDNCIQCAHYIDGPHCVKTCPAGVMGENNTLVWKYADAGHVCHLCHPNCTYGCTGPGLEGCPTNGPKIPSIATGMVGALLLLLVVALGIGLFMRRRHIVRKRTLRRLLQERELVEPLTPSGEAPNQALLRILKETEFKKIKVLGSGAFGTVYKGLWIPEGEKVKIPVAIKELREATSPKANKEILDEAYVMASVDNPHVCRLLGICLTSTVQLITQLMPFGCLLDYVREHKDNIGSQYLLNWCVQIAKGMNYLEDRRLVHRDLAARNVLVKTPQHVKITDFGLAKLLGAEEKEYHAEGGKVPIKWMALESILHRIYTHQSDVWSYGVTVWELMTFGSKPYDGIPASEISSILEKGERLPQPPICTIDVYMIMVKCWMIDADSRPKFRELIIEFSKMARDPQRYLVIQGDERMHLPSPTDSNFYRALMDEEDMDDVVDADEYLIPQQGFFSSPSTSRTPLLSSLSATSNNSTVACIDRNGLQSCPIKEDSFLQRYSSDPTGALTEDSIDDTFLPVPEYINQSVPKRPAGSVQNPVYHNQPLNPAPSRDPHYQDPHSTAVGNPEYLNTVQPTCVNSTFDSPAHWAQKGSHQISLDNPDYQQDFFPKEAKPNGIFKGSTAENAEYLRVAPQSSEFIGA
Chain of EGFR L858R/C797S (P00533 25-1210 C797S/L858R): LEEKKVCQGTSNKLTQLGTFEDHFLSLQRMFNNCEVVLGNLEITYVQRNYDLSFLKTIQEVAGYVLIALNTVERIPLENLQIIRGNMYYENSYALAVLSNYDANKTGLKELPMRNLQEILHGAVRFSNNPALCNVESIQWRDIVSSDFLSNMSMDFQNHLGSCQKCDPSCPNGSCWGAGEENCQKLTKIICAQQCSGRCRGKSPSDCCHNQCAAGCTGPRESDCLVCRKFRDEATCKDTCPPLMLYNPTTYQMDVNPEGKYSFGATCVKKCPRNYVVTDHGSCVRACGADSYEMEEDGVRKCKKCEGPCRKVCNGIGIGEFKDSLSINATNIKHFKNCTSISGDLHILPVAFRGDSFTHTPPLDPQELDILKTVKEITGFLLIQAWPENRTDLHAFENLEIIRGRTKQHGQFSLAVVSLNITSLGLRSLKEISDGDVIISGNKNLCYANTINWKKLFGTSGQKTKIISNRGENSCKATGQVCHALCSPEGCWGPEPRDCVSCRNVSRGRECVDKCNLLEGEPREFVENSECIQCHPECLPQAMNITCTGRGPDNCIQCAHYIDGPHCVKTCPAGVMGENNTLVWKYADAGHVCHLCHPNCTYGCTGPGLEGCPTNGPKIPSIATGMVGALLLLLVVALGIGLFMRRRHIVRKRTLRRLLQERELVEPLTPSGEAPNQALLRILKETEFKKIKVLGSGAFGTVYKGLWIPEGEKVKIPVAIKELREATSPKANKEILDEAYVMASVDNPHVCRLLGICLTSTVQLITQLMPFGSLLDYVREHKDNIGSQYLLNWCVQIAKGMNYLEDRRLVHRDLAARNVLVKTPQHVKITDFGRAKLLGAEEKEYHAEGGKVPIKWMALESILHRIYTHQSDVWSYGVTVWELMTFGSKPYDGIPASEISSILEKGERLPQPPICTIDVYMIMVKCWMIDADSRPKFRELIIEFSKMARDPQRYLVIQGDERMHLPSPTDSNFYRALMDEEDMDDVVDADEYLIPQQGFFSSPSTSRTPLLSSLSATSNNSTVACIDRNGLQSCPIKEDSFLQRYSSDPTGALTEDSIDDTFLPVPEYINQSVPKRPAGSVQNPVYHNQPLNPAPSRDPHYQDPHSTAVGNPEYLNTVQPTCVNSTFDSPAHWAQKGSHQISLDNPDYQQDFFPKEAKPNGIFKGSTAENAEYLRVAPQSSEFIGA

Row | Compound | IC50 (EGFR del19/T790M/C797S; [1]) [nM] | IC50 (EGFR del19/T790M/C797S; [2]) [nM] | IC50 (EGFR L858R/T790M/C797S; [3]) [nM] | IC50 (EGFR L858R/T790M/C797S; [4]) [nM] | IC50 (EGFR del19/C797S; [5]) [nM] | IC50 (EGFR del19/C797S; [6]) [nM] | IC50 (EGFR L858R/C797S; [7]) [nM] | IC50 (EGFR L858R/C797S; [8]) [nM] | IC50 (EGFR wildtype (WT); [9]) [nM] | IC50 (EGFR wildtype (WT); [10]) [nM]
1 | C[C@]1(O)CC[C@@H](Nc2cc(Nc3ccnc(-c4cnn(CC5CC5)c4)n3)ncc2-c2ccn(C(F)F)n2)CC1 [Example 141, (1s,4s)-4-((2-((2-(1-(Cyclopropylmethyl)-1H-pyrazol-4-yl)pyrimidin-4-yl)amino)-5-(1-(difluoromethyl)-1H-pyrazol-3-yl)pyridin-4-yl)amino)-1-methylcyclohexan-1-ol] | 15.8 |  | 3.2 |  | 111 |  | 198 |  | > 10000 | 
2 | Cn1ccc(-c2cnc(Nc3ccnc(-c4cnn(S(=O)(=O)C5CC5)c4)n3)cc2NC2CCCC(NCCF)C2)n1 (centres unmarked) [Example 225, N^2-(2-(1-(Cyclopropylsulfonyl)-1H-pyrazol-4-yl)pyrimidin-4-yl)-N^4-(3-((2-fluoroethyl)amino)cyclohexyl)-5-(1-methyl-1H-pyrazol-3-yl)pyridine-2,4-diamine] | 0.2 | 0.3 | 0.6 | 0.2 | 6.7 | 2.9 | 15.3 | 5 | > 10000 | 27.4
3 | C[C@]1(O)CC[C@@H](Nc2cc(Nc3ccnc(-c4cnn(CC(F)(F)C(F)F)c4)n3)ncc2-c2ccn(C(F)F)n2)CC1 [Example 322, (1s,4s)-4-((5-(1-(Difluoromethyl)-1H-pyrazol-3-yl)-2-((2-(1-(2,2,3,3-tetrafluoropropyl)-1H-pyrazol-4-yl)pyrimidin-4-yl)amino)pyridin-4-yl)amino)-1-methylcyclohexan-1-ol] |  | 1.9 |  | 0.6 |  | 176 |  | 15.5 |  | 1520
4 | CC1(O)CCC(Nc2cc(Nc3ccnc(-c4cnn(C5CCCO5)c4)n3)ncc2-c2ccn(C(F)F)n2)CC1 (centres unmarked) [Example 318, (1s,4s)-4-((5-(1-(Difluoromethyl)-1H-pyrazol-3-yl)-2-((2-(1-(tetrahydrofuran-2-yl)-1H-pyrazol-4-yl)pyrimidin-4-yl)amino)pyridin-4-yl)amino)-1-methylcyclohexan-1-ol] | 3 | 3.6 | 4.8 | 0.5 | 290 | 57.1 | 277 | 42.7 | > 10000 | 255

Results, then the compound that gave them:

Row | IC50 (EGFR del19/T790M/C797S; [1]) [nM] | IC50 (EGFR del19/T790M/C797S; [2]) [nM] | IC50 (EGFR L858R/T790M/C797S; [3]) [nM] | IC50 (EGFR L858R/T790M/C797S; [4]) [nM] | IC50 (EGFR del19/C797S; [5]) [nM] | IC50 (EGFR del19/C797S; [6]) [nM] | IC50 (EGFR L858R/C797S; [7]) [nM] | IC50 (EGFR L858R/C797S; [8]) [nM] | IC50 (EGFR wildtype (WT); [9]) [nM] | IC50 (EGFR wildtype (WT); [10]) [nM] | Compound
5 | 0.5 | 0.3 | 0.3 | 0.2 | 0.8 | 0.7 | 14.3 | 2 | > 10000 | 6.9 | CNC(=O)[C@H]1CC[C@@H](Nc2cc(Nc3ccnc(-c4cnn(S(=O)(=O)C5CC5)c4)n3)ncc2-c2ccn(C(F)F)n2)CC1 [Example 24, (1s,4s)-4-((2-((2-(1-(Cyclopropylsulfonyl)-1H-pyrazol-4-yl)pyrimidin-4-yl)amino)-5-(1-(difluoromethyl)-1H-pyrazol-3-yl)pyridin-4-yl)amino)-N-methylcyclohexane-1-carboxamide]
6 | 0.3 | 0.2 | 0.3 | 0.1 | 0.5 | 0.2 | 1.6 | 0.2 | 47.5 | 0.4 | CN(C)C[C@H]1CC[C@@H](Nc2cc(Nc3ccnc(-c4cnn(S(=O)(=O)C5CC5)c4)n3)ncc2-c2cc3n(n2)CCCC3)CC1 [Example 277, N^2-(2-(1-(Cyclopropylsulfonyl)-1H-pyrazol-4-yl)pyrimidin-4-yl)-N^4-((1s,4s)-4-((dimethylamino)methyl)cyclohexyl)-5-(4,5,6,7-tetrahydropyrazolo[1,5-a]pyridin-2-yl)pyridine-2,4-diamine]
